Assay results as given in PubChem BioAssay AID1996.
≈ marks a conversion by molar mass, not a printed value.

details: buffer; pH 7.4; 200.0 µM

| Compound | solubility kinetic |
| --- | --- |
| COc1ccc(N2CCN(c3ccc(NC(=O)/C=C\C(=O)O)cc3)CC2)cc1 | > 57.2 µg/mL |
| CC(=O)c1cccc(NC(=O)c2cc(C)nn2-c2ccccc2)c1 | > 47.9 µg/mL |
| CC(=O)NCCc1ccc(C(=O)COC(=O)c2cc(C)oc2C)cc1 | > 51.5 µg/mL |
| CCCC12CN3CC(CCC)(CN(C1)C3c1ccco1)C2=O (stereo not given) | > 45.4 µg/mL |
| COc1ccc(NS(=O)(=O)c2ccc(Cl)c(NC(=O)c3ccccc3F)c2)cc1 | 2.6 µg/mL (≈ 5.98 µM) |
| COc1ccc(C(=O)N2CCn3c2nc2ccccc23)cc1 | 6.7 µg/mL (≈ 22.8 µM) |
| N#CC1=C(N)Oc2nc[nH]c(=O)c2C1c1cccs1 (stereo not given) | > 40.8 µg/mL |
| CCC(=O)Nc1ccc2c(c1)nc1n2CCN(C2CCCCC2)C1 | > 49 µg/mL |
| CC1CCN(C(=O)c2cc(-c3ccc4c(c3)OCO4)on2)CC1 | 28.2 µg/mL (≈ 89.7 µM) |
| N#Cc1ccccc1OCC(=O)Nc1ccc2c(c1)OCCCO2 | > 48.7 µg/mL |
| O=C(CCc1ccc(S(=O)(=O)N2CCOCC2)cc1)Nc1ccccc1F | > 58.9 µg/mL |
| COc1ccccc1OCC#CCSc1ncccn1 | > 43 µg/mL |
| CCOC(=O)c1c(-c2ccc(C)cc2)csc1/N=C/N(C)C | > 47.5 µg/mL |
| O=C(COC(=O)c1cccnc1Cl)c1ccc(F)cc1 | 42.7 µg/mL (≈ 145 µM) |
| NC(=O)c1cc(S(=O)(=O)NCc2ccccc2)cs1 | > 44.5 µg/mL |
| Cc1cc(S(=O)(=O)NCc2ccc(N3CCN(C)CC3)cc2)c(C)s1 | 15.8 µg/mL (≈ 41.6 µM) |
| Cc1ccc(F)cc1NC(=O)N1CCCN(C(=O)OC(C)(C)C)CC1 | 46.9 µg/mL (≈ 133 µM) |
| Cc1ccc(C(=O)N2CCC(C(=O)c3c(C)cc(C)cc3C)CC2)cc1 | 24.1 µg/mL (≈ 69 µM) |
| CC(=O)c1c(C)oc2ccc(NS(=O)(=O)c3ccccc3)cc12 | < 0.7 µg/mL |
| COCCNC(=S)N(CCc1c(C)[nH]c2ccc(C)cc12)Cc1ccco1 | 15.2 µg/mL (≈ 39.4 µM) |
| CCNC(=O)NC1c2ccccc2CSc2ccccc21.O (stereo not given) | 8.8 µg/mL |
| COc1ccc(CC(=O)OCC(=O)NC2CCCCC2)cc1OC | > 50.3 µg/mL |
| CCCC(=O)Nc1nc(C)c(C(C)=O)s1 | > 33.9 µg/mL |

| Compound | solubility kinetic |
| --- | --- |
| Cc1cccc(/C=C(\C#N)C(=O)Nc2ccccn2)c1 | 33.3 µg/mL (≈ 126 µM) |
| Cc1ccc(SCc2cn3ccccc3n2)cc1 | 37 µg/mL (≈ 145 µM) |
| N#Cc1cc2ccccc2nc1N | > 25.4 µg/mL |
| CCn1c(C)nc2cc(C(=O)NN=Cc3ccccc3OC(F)F)ccc21 | > 55.9 µg/mL |
| Cc1ccc(CNC(=O)[C@@H](NC(=O)Cc2ccccc2)C(C)C)cc1 | 7.4 µg/mL (≈ 21.9 µM) |
| C=CCN(c1ccccc1)S(=O)(=O)c1cccc(C(=O)NCc2ccco2)c1 | 23.9 µg/mL (≈ 60.3 µM) |
| Nc1ccc(OCc2ccco2)cc1 | 19.5 µg/mL (≈ 103 µM) |
| CCN(c1ccccc1)S(=O)(=O)c1cc(NC(=O)CN2CCN(C)CC2)ccc1Cl.O=C(O)C(=O)O | > 81.2 µg/mL |
| Cc1cccc(OCCC(=O)Nc2ccccc2C(N)=O)c1 | 44.2 µg/mL (≈ 148 µM) |
| CCCn1c2ccccc2c2cnn(CC(=O)O)c(=O)c21 | > 42.8 µg/mL |
| OC(CNCc1ccccc1)(c1ccccc1)c1ccccc1 | > 45.5 µg/mL |
| CCOC(=O)Nc1ccc2nc3n(c(=O)c2c1)CCCCC3 | 9.1 µg/mL (≈ 30.2 µM) |
| Nn1c(SCC(=O)NCC2CCCO2)nnc1-c1ccco1 (stereo not given) | > 48.5 µg/mL |
| O=C(Nc1ccccc1Br)c1cc[n+]([O-])cc1 | > 44 µg/mL |
| O=C(O)c1ccccc1NCc1cccnc1 | > 34.2 µg/mL |
| COC(=O)c1ccc(CN2C(=O)C3CCCCC3C2=O)o1 (stereo not given) | > 43.7 µg/mL |
| Cc1ccc(-c2ccnc3cc(C)nn23)cc1 | > 33.5 µg/mL |
| COCCNc1nc(-c2cc(C)c(C)cc2C)cs1.Cl | 35.4 µg/mL |
| CC1=C(C(=O)OCC2CCCCC2)C(c2ccc(F)cc2)NC(=O)N1 (stereo not given) | 0.5 µg/mL (≈ 1.44 µM) |
| CCc1cc2ccccc2nc1SCC(=O)NC1CCCC1 | 0.3 µg/mL (≈ 0.954 µM) |
| O=C(O)C1C2CCC(O2)C1C(=O)Nc1ccc(OC(F)F)cc1 (stereo not given) | 44.3 µg/mL (≈ 135 µM) |
| NC(=O)NC(=O)COC(=O)/C=C/c1cccs1 | 10.4 µg/mL (≈ 40.9 µM) |
| CN(CCOc1ccccc1)CC(=O)Nc1cc([N+](=O)[O-])ccc1Cl | 13.7 µg/mL (≈ 37.7 µM) |

| Compound | solubility kinetic |
| --- | --- |
| O=[N+]([O-])c1ccc(C(=S)N2CCCC2)cc1 | > 35.4 µg/mL |
| O=C(Nc1ccc2c(c1)OCO2)C1CC(c2ccccc2O)=NO1 (stereo not given) | 1.4 µg/mL (≈ 4.29 µM) |
| COc1ccc(C(=O)NCCc2cn3ccccc3n2)cc1 | 42.9 µg/mL (≈ 145 µM) |
| CCC/C(O)=C1\C(=O)CCCC1=NCCc1c(C)[nH]c2ccccc12 | 34.4 µg/mL (≈ 102 µM) |
| CCOC(=O)CSc1nc2cc(C(F)(F)F)cnc2n1C | 44.9 µg/mL (≈ 141 µM) |
| Cc1ccc(C(=O)O)cc1NC(=S)NCCc1ccccc1 | > 47.2 µg/mL |
| CC(=O)c1c(C)[nH]c(C(=O)COC(=O)c2c(C)noc2C)c1C | 5.4 µg/mL (≈ 17 µM) |
| O=C(Cn1c(=O)oc2ccc(Cl)cc21)NC1CCCCC1 | 2.9 µg/mL (≈ 9.39 µM) |
| Cc1csc(SC(C)C(=O)NCc2ccc3c(c2)OCO3)n1 (stereo not given) | 49 µg/mL (≈ 146 µM) |
| O=C(O/N=C1\CCCc2ccccc21)C1CC1 | 28.3 µg/mL (≈ 123 µM) |
| Cc1ccccc1-n1c(=O)n(Cc2ccccc2)c(=O)c2[nH]cnc21 | > 49.9 µg/mL |
| COc1cc2c(cc1OC)C(C)N(S(=O)(=O)c1ccc(C)cc1)CC2 (stereo not given) | 26.8 µg/mL (≈ 74.1 µM) |
| CCC(=Nc1ccccc1)C1=C(O)CCCC1=O | 19.9 µg/mL (≈ 81.8 µM) |
| CCC(C(=O)OC)(C(=O)OC)c1ccc([N+](=O)[O-])cc1 | > 42.2 µg/mL |
| O=C(COC(=O)c1ccc(Cl)cc1)NC(=O)NC1CCCC1 | 5.7 µg/mL (≈ 17.6 µM) |
| CC1CN(C(=S)Nc2ccc(S(N)(=O)=O)cc2)CC(C)O1 (stereo not given) | > 49.4 µg/mL |
| Br.COc1cccc(CNCC2CCCO2)c1 (stereo not given) | 44.1 µg/mL |
| O=C1N(c2ccccc2)C[C@@H]2C[C@@H](c3cccs3)N3CCC[C@@]123 | 41.8 µg/mL (≈ 129 µM) |
| O=C(CNC(=O)c1cccc(OC(F)F)c1)Nc1ccc(Cl)cc1 | 3.4 µg/mL (≈ 9.58 µM) |
| O=C(OCC(=O)c1c[nH]c2ccccc12)c1cncc(Br)c1 | 7.5 µg/mL (≈ 20.9 µM) |
| COc1ccccc1OCCCC(=O)NC(C)c1ccccc1 (stereo not given) | > 47 µg/mL |
| S=C(NCCCN1CCOCC1)NC1CC1 | > 36.5 µg/mL |
| O=C(CCNC(=O)c1ccc(Cl)cc1)Nc1ncccc1O | 45 µg/mL (≈ 141 µM) |

| Compound | solubility kinetic |
| --- | --- |
| O=C(Nc1ccc2c(c1)C(=O)OC2)c1ccccc1Cl | 41 µg/mL (≈ 143 µM) |
| Cc1ccc(CC(=O)Nc2nccs2)cc1 | 29.8 µg/mL (≈ 128 µM) |
| O=C(COC(=O)Cc1ccccc1F)NC(=O)NC1CCCC1 | 42.5 µg/mL (≈ 132 µM) |
| O=S(=O)(Nc1ccc(Cl)cc1)c1cccc2cccnc12 | 5 µg/mL (≈ 15.7 µM) |
| COc1ccc2[nH]c(=O)c(CNc3ccc(C)cc3C)cc2c1 | 41.5 µg/mL (≈ 135 µM) |
| CC(C)C(C)NC(=O)COc1ncnc2sccc12 (stereo not given) | > 41.9 µg/mL |
| COc1ccccc1Oc1ccc2c(c1)C(=O)N(CC(=O)O)C2=O | > 49.1 µg/mL |
| CC(C)[C@H](NC(=O)c1ccco1)C(=O)OCC(=O)c1ccc(Br)s1 | > 62.1 µg/mL |
| Cn1c(SCc2cccnc2)nc2c(c1=O)SCC2 | > 43.7 µg/mL |
| COc1ccc(C/C(N)=N/OC(=O)c2cccs2)cc1 | 7.5 µg/mL (≈ 25.8 µM) |
| NC(=O)c1cccnc1Oc1ccc(Cl)cc1 | > 37.3 µg/mL |
| Cc1ccc(NC(=O)Cc2ccc(Cl)cc2)nc1 | 28.5 µg/mL (≈ 109 µM) |
| COc1ccc(C(=O)NCCN2CCCC2)cc1.Cl | > 42.7 µg/mL |
| CCN(CC)C(=O)Oc1cc(COC)nc(-c2ccccc2)n1 | 39.5 µg/mL (≈ 125 µM) |
| O=S(=O)(NCc1ccccn1)c1cc(Cl)ccc1Cl | > 47.6 µg/mL |
| COc1ccccc1NC(=O)NCCc1c[nH]c2ccccc12 | 41.1 µg/mL (≈ 133 µM) |
| COC(=O)c1cccc(Cn2cc([N+](=O)[O-])cn2)c1 | > 39.2 µg/mL |
| N#CCOc1coc(CN2CCN(c3ccccc3)CC2)cc1=O | > 48.8 µg/mL |
| COc1ccc(/C=C2/N=C(SC)NC2=O)cc1OC | 10.1 µg/mL (≈ 36.3 µM) |
| COc1cc(C(=O)N[C@H](C(=O)NC2CCCc3ccccc32)C(C)C)cc(OC)c1OC (stereo not given in full) | 4.9 µg/mL (≈ 11.1 µM) |
| CC(OC(=O)C1CC2CCCC(C1)C2=O)C(=O)Nc1cccc([N+](=O)[O-])c1 (stereo not given) | > 56.2 µg/mL |
| c1ccc2c(c1)CCNC2c1ccncc1 (stereo not given) | > 31.5 µg/mL |
| COc1ccc(CNC(=O)c2cc3cc(OC)ccc3oc2=O)cc1 | < 0.7 µg/mL |

| Compound | solubility kinetic |
| --- | --- |
| CC(CCc1ccccc1)NC(=O)CCc1cn(C)c2ccccc12 (stereo not given) | 6.2 µg/mL (≈ 18.5 µM) |
| COc1ccc(NC(=O)COC(=O)Cc2coc3cc(OC)ccc23)c(OC)c1 | 11.8 µg/mL (≈ 29.5 µM) |
| Cc1cc(NS(C)(=O)=O)c(=O)n(Cc2cccc(F)c2)c1 | > 46.6 µg/mL |
| O=C(NCCNC(=O)c1ccccc1F)c1ccccn1 | > 43.1 µg/mL |
| CN(C)C(CNS(=O)(=O)c1cc([N+](=O)[O-])ccc1Cl)c1ccco1.Cl (stereo not given) | 20.6 µg/mL |
| CCCN1C2CCCC1CC(NC(=S)Nc1ccc(OC)cc1)C2 (stereo not given) | > 52.1 µg/mL |
| COCCCNc1nc2nonc2nc1NCCSC | 37.1 µg/mL (≈ 124 µM) |
| S=C(NCCc1ccccc1)N1CCCC1 | > 35.2 µg/mL |
| COc1ccc2cc(C(=O)N(C)Cc3ccccc3)[nH]c2c1 | < 0.3 µg/mL |
| Cn1c(=O)n(C)c2cc(NC(=O)COc3ccc(F)cc3F)ccc21 | 47.2 µg/mL (≈ 136 µM) |
| COc1ccc2[nH]c(C(=O)NCCN3CCCCC3)cc2c1 | 39.7 µg/mL (≈ 132 µM) |
| CC(C)C1CC(CCN)(c2ccccc2)CCO1.O=C(O)C(=O)O (stereo not given) | > 50.6 µg/mL |
| CCOC(=O)c1c(N)sc(C(=O)N(CC)CC)c1C | > 42.7 µg/mL |
| Cc1cnc(NC(=O)COc2ccc3c(c2)CCC3)s1 | 1.2 µg/mL (≈ 4.16 µM) |
| O=C(CCNC(=O)c1ccccc1)Nc1nc2ccccc2s1 | 4.9 µg/mL (≈ 15.1 µM) |
| O=[N+]([O-])c1ccc(CSc2ccccn2)cc1 | 15.2 µg/mL (≈ 61.7 µM) |
| O=C(O)c1ccc(Nc2ccc([N+](=O)[O-])c3nonc23)cc1 | > 45 µg/mL |
| Cc1ccc(NC(=O)Cn2c(=O)oc3ccccc32)cc1 | 7.2 µg/mL (≈ 25.5 µM) |
| CN(C)CC/C=C1\c2ccccc2Sc2cc(F)c(Cl)cc21.Cl | 43 µg/mL |
| O=[N+]([O-])c1cc(F)c(N2CCCCC2)cc1Br | 0.3 µg/mL (≈ 0.99 µM) |
| COc1ccc(Nc2ccc(N3C(=O)CCC3=O)cc2[N+](=O)[O-])cn1 | 3.1 µg/mL (≈ 9.06 µM) |
| Cc1[nH]c2ccccc2c1C(=O)C(=O)NCCCn1ccnc1 | > 46.6 µg/mL |
| CN1CCCN(c2ccc([N+](=O)[O-])nc2)CC1 | > 35.4 µg/mL |
